Results from ChEMBL document CHEMBL3045024, “Synthesis, structure and insecticidal activities of some novel amides containing N-pyridylpyrazole moeities” (2012).
Calls of active or inactive are those of the source. The calls are words filed in the database; no cut-off is given here.

Assays:
Plutella xylostella [1] = experiment: Insecticidal activity against Plutella xylostella (diamondback moth) second-instar larvae infested on compound pre-treated cabbage leaves assessed as mortality at 100 ug/mL measured 3 days post compound treatment by leaf-dipping assay; assay type: functional
Spodoptera exigua [2] = experiment: Insecticidal activity against Spodoptera exigua third-instar larvae infested on compound pre-treated cabbage leaves assessed as mortality at 100 ug/mL measured 3 days post compound treatment by leaf-dipping assay; assay type: functional
Culex pipiens pallens = experiment: Insecticidal activity against Culex pipiens pallens (mosquito) fourth-instar larvae assessed as mortality at 2 ug/mL measured 72 hr post compound treatment; assay type: functional
Mythimna separata [3] = experiment: Insecticidal activity against fourth-instar larvae of Mythimna separata (Oriental armyworm) reared on compound pre-treated corn leaves assessed as mortality at 100 ug/mL measured 72 hr post compound treatment by leaf-dipping assay; assay type: functional
Mythimna separata [4] = experiment: Insecticidal activity against fourth-instar larvae of Mythimna separata (Oriental armyworm) reared on compound pre-treated corn leaves assessed as mortality at 50 ug/mL measured 72 hr post compound treatment by leaf-dipping assay; assay type: functional
Plutella xylostella [5] = experiment: Insecticidal activity against Plutella xylostella (diamondback moth) second-instar larvae infested on compound pre-treated cabbage leaves assessed as mortality at 25 ug/mL measured 3 days post compound treatment by leaf-dipping assay; assay type: functional
Plutella xylostella [6] = experiment: Insecticidal activity against Plutella xylostella (diamondback moth) second-instar larvae infested on compound pre-treated cabbage leaves assessed as mortality at 200 ug/mL measured 3 days post compound treatment by leaf-dipping assay; assay type: functional
Spodoptera exigua [7] = experiment: Insecticidal activity against Spodoptera exigua third-instar larvae infested on compound pre-treated cabbage leaves assessed as mortality at 200 ug/mL measured 3 days post compound treatment by leaf-dipping assay; assay type: functional
Spodoptera exigua [8] = experiment: Insecticidal activity against Spodoptera exigua third-instar larvae infested on compound pre-treated cabbage leaves assessed as mortality at 25 ug/mL measured 3 days post compound treatment by leaf-dipping assay; assay type: functional
Plutella xylostella [9] = experiment: Insecticidal activity against Plutella xylostella (diamondback moth) second-instar larvae infested on compound pre-treated cabbage leaves assessed as mortality at 50 ug/mL measured 3 days post compound treatment by leaf-dipping assay; assay type: functional
Spodoptera exigua [10] = experiment: Insecticidal activity against Spodoptera exigua third-instar larvae infested on compound pre-treated cabbage leaves assessed as mortality at 50 ug/mL measured 3 days post compound treatment by leaf-dipping assay; assay type: functional
Mythimna separata [11] = experiment: Insecticidal activity against fourth-instar larvae of Mythimna separata (Oriental armyworm) reared on compound pre-treated corn leaves assessed as mortality at 25 ug/mL measured 72 hr post compound treatment by leaf-dipping assay; assay type: functional
Mythimna separata [12] = experiment: Insecticidal activity against fourth-instar larvae of Mythimna separata (Oriental armyworm) reared on compound pre-treated corn leaves assessed as mortality at 200 ug/mL measured 72 hr post compound treatment by leaf-dipping assay; assay type: functional
Mythimna separata [13] = experiment: Insecticidal activity against fourth-instar larvae of Mythimna separata (Oriental armyworm) reared on compound pre-treated corn leaves assessed as mortality at 10 ug/mL measured 72 hr post compound treatment by leaf-dipping assay; assay type: functional
Mythimna separata [14] = experiment: Insecticidal activity against fourth-instar larvae of Mythimna separata (Oriental armyworm) reared on compound pre-treated corn leaves assessed as mortality at 5 ug/mL measured 72 hr post compound treatment by leaf-dipping assay; assay type: functional
Mythimna separata [15] = experiment: Insecticidal activity against fourth-instar larvae of Mythimna separata (Oriental armyworm) reared on compound pre-treated corn leaves assessed as induction of abnormal symptoms at 10 ug/mL measured 36 hr post compound treatment by leaf-dipping assay; assay type: functional, organism-based

Row | Compound | mortality at 100 µg/mL (Plutella xylostella [1]) [%] | mortality at 100 µg/mL (Spodoptera exigua [2]) [%] | mortality at 2 µg/mL (Culex pipiens pallens) [%] | mortality at 100 µg/mL (Mythimna separata [3]) [%] | mortality at 50 µg/mL (Mythimna separata [4]) [%] | mortality at 25 µg/mL (Plutella xylostella [5]) [%] | mortality at 200 µg/mL (Plutella xylostella [6]) [%] | mortality at 200 µg/mL (Spodoptera exigua [7]) [%] | mortality at 25 µg/mL (Spodoptera exigua [8]) [%] | mortality at 50 µg/mL (Plutella xylostella [9]) [%] | mortality at 50 µg/mL (Spodoptera exigua [10]) [%] | mortality at 25 µg/mL (Mythimna separata [11]) [%] | mortality at 200 µg/mL (Mythimna separata [12]) [%] | mortality at 10 µg/mL (Mythimna separata [13]) [%] | mortality at 5 µg/mL (Mythimna separata [14]) [%] | Activity (Mythimna separata [15])
1 | O=C(Nc1ccc(F)cc1)c1cc(Br)nn1-c1ncccc1Cl | 98 | 100 | 0 | 100 | 100 | 88 | 100 | 95 | 96 | 99 | 92 | 50 | 100 |  |  | 
2 | O=C(Nc1ccc(Cl)cc1[N+](=O)[O-])c1cc(Br)nn1-c1ncccc1Cl |  |  | 40 |  |  |  |  |  |  |  |  |  | 10 |  |  | 
3 | Cc1cc([N+](=O)[O-])cc(Cl)c1NC(=O)c1cc(Br)nn1-c1ncccc1Cl |  |  |  | 100 | 100 |  |  |  |  |  |  | 70 | 100 | 30 |  | 
4 | Cc1cc([N+](=O)[O-])ccc1NC(=O)c1cc(Br)nn1-c1ncccc1Cl |  |  | 40 | 100 | 100 |  |  |  |  |  |  | 80 | 100 | 50 |  | 
5 | Cc1cc(Cl)cc([N+](=O)[O-])c1NC(=O)c1cc(Br)nn1-c1ncccc1Cl | 89 | 100 | 20 | 100 | 100 | 76 | 95 | 98 | 92 | 84 | 95 | 60 | 100 |  |  | 
6 | O=C(Nc1ccc(I)cc1)c1cc(Br)nn1-c1ncccc1Cl |  |  | 100 | 100 | 50 |  |  |  |  |  |  |  | 100 |  |  | 
7 | Cc1cc(Cl)cc(C)c1NC(=O)c1cc(Br)nn1-c1ncccc1Cl | 100 | 100 | 30 | 100 | 100 | 94 | 100 | 100 | 94 | 97 | 98 | 80 | 100 | 20 |  | 
8 | O=C(Nc1ccc(Cl)cc1)c1cc(Br)nn1-c1ncccc1Cl | 98 | 100 | 10 | 100 | 100 | 97 | 100 | 100 | 100 | 100 | 100 | 70 | 100 | 0 |  | 
9 | Cc1ccc(NC(=O)c2cc(Br)nn2-c2ncccc2Cl)c(C)c1 |  |  |  | 70 | 0 |  |  |  |  |  |  |  | 100 |  |  | 
10 | Cc1cc(Br)cc(C)c1NC(=O)c1cc(Br)nn1-c1ncccc1Cl | 72 | 100 | 30 | 100 | 100 |  | 89 | 100 | 93 | 0 | 89 | 100 | 100 | 30 |  | 
11 | CNC(=O)c1cc(Cl)cc(C)c1NC(=O)c1cc(Br)nn1-c1ncccc1Cl [CHLORANTRANILIPROLE] |  |  | 100 |  |  | 94 |  |  | 100 | 100 | 100 |  |  |  | 100 | Active
12 | O=C(Nc1cc(Cl)ccc1Cl)c1cc(Br)nn1-c1ncccc1Cl |  |  | 10 |  |  |  |  |  |  |  |  |  | 0 |  |  | 
13 | O=C(Nc1cccc(Cl)c1)c1cc(Br)nn1-c1ncccc1Cl |  |  |  |  |  |  |  |  |  |  |  |  | 0 |  |  | 
14 | Cc1cccc(C)c1NC(=O)c1cc(Br)nn1-c1ncccc1Cl |  |  |  | 80 | 40 |  |  |  |  |  |  |  | 100 |  |  | 
15 | CCOc1ccc(NC(=O)c2cc(Br)nn2-c2ncccc2Cl)cc1 |  |  | 30 | 0 |  |  |  |  |  |  |  |  | 100 |  |  | 
16 | O=C(Nc1ccc([N+](=O)[O-])cc1Br)c1cc(Br)nn1-c1ncccc1Cl | 98 | 100 | 40 | 100 | 30 | 90 | 100 | 100 | 100 | 96 | 100 |  | 100 |  |  | 
17 | O=C(Nc1ccc(F)c(Cl)c1)c1cc(Br)nn1-c1ncccc1Cl |  |  |  | 0 |  |  |  |  |  |  |  |  | 100 |  |  | 
18 | Cc1cccc([N+](=O)[O-])c1NC(=O)c1cc(Br)nn1-c1ncccc1Cl |  |  | 50 | 80 | 20 |  |  |  |  |  |  |  | 100 |  |  | 
19 | O=C(Nc1ccc([N+](=O)[O-])cc1Cl)c1cc(Br)nn1-c1ncccc1Cl | 72 | 86 | 80 | 100 | 100 |  | 78 | 91 | 65 | 0 | 78 | 100 | 100 | 80 | 0 | Active
20 | O=C(Nc1ccc([N+](=O)[O-])cc1)c1cc(Br)nn1-c1ncccc1Cl |  |  | 20 | 90 | 20 |  |  |  |  |  |  |  | 100 |  |  | 
